Among the data in patent US9409952B2, “Peptide-compound cyclization method” (Chugai Seiyaku Kabushiki Kaisha, priority 2011, dated 2016) are microsomal CLint and Papp values, retold here.

Starred links: 1 amine or outer side, 2 acyl side, 3 side chain; linkers in the order of their positions; H or OH if unused. Positions of bridges follow the written chain, without caps; N, C: chain ends. Non-standard residues stand in square brackets, D forms with d. Residues, ends and D or L forms follow the SMILES beside them. ξ: configuration not given here. *: point of attachment. NMeF = CN[C@@H](Cc1ccccc1)C(=O)O; NMeβAla = CN(CCC(=O)[*:2])[*:1]; NMeL = CN[C@@H](CC(C)C)C(=O)O; ξNMeF = CNC(Cc1ccccc1)C(=O)O; NMeV = CN[C@H](C(=O)O)C(C)C; NMeA = CN[C@@H](C)C(=O)O; Piperidide = C1CCN(*)CC1; dNMeA = CN[C@H](C)C(=O)O; Sar = CNCC(=O)O

Data set [1] is described as follows: Metabolic stability in human hepatic microsome. It counts as in vitro ADME. The conditions noted are these: microsomes, pH 7.4; human hepatic microsome, NADPH(+); read-out: CL NADPH(+).
A short description of data set [2]: PAMPA (parallel artificial membrane permeability assay). It counts as in vitro ADME. The conditions noted are these: PAMPA; membrane permeation rate (Pe); 50 mM MOPSO buffer pH 6.5 with 5.0% glycocholic acid, 37° C., 18 hours; read-out: iPAMPA Pe. In a few lines: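 Artificial membrane was 10% (w/v) egg lecithin plus 0.5% (w/v) cholesterol in dodecane on a PVDF filter. A 10 mM DMSO stock was added at 0.5% (v/v) to donor buffer (50 mM MOPSO, pH 6.5, 5.0% glycocholic acid). After 18 h at 37 °C, LC/MS or LC/UV gave donor and acceptor levels for Pe.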
(The PAMPA barrier holds no transporters, so it reflects passive diffusion.)

For `CC[C@H](C)[C@@H]1NC(=O)[C@@H](C)N(C)C(=O)C[C@@H](C(=O)N(C)[C@@H](Cc2ccccc2)C(=O)N[C@@H](C)C(=O)N2CCCCC2)NC(=O)[C@H](Cc2ccccc2)N(C)C(=O)CN(C)C(=O)[C@H]([C@@H](C)O)NC(=O)[C@H](C)N(C)C(=O)[C@H](C(C)C)N(C)C(=O)[C@H](Cc2ccccc2)NC(=O)[C@H](CC(C)C)N(C)C(=O)[C@H](CC(C)C)N(C)C1=O` [DP-183] ([dNMeA]I[NMeL][NMeL]F[NMeV][NMeA]T[Sar][NMeF]D[NMeF]A-Piperidide; lactam N-11), the microsomal CLint at 1 uM in data set [1] amounted to 25 µL/min/mg. In addition, in data set [2], the Papp at 18 hours, 50 µM is 29 ×10⁻⁶ cm/s.
For `CC(C)C[C@@H]1NC(=O)[C@H]([C@@H](C)O)NC(=O)[C@@H]2CCCN2C(=O)CNC(=O)[C@H](CC(C)C)N(C)C(=O)[C@H](Cc2ccccc2)NC(=O)[C@H](CC(C)C)N(C)C(=O)[C@H](CC(C)C)N(C)C(=O)[C@H](Cc2ccccc2)NC(=O)CN(C)C(=O)C[C@@H](C(=O)N(C)C(Cc2ccccc2)C(=O)N[C@@H](C)C(=O)N2CCCCC2)NC1=O` (some centres unmarked) [DP-185] ([Sar]F[NMeL][NMeL]F[NMeL]GPTLD[ξNMeF]A-Piperidide; lactam N-11) the same measures were 19 µL/min/mg and 46 ×10⁻⁶ cm/s.
In the case of `CC(C)C[C@H]1C(=O)N(C)[C@@H](C(C)C)C(=O)N[C@@H](C(C)C)C(=O)N[C@H](C(=O)N(C)[C@@H](Cc2ccccc2)C(=O)N[C@@H](C)C(=O)N2CCCCC2)CC(=O)N[C@@H](C)C(=O)N[C@@H](Cc2ccccc2)C(=O)N(C)[C@@H](CC(C)C)C(=O)N[C@@H]([C@@H](C)O)C(=O)N(C)[C@@H](Cc2ccccc2)C(=O)NCC(=O)N1C` [DP-187] (AF[NMeL]T[NMeF]G[NMeL][NMeV]VD[NMeF]A-Piperidide; lactam N-10), in data set [1], the microsomal CLint at 1 uM worked out at 22 µL/min/mg. The Papp at 18 hours, 50 µM in data set [2] came out at 43 ×10⁻⁶ cm/s.
On the same counts, the results for `CC(C)C[C@H]1C(=O)N(C)[C@@H](CC(C)C)C(=O)N[C@H](C(=O)N(C)[C@@H](Cc2ccccc2)C(=O)N[C@@H](C)C(=O)N2CCCCC2)CC(=O)N[C@@H](C)C(=O)N(C)[C@@H](C)C(=O)N(C)[C@@H](Cc2ccccc2)C(=O)N(C)[C@@H](CC(C)C)C(=O)N[C@@H]([C@@H](C)O)C(=O)N(C)CC(=O)N[C@@H](C(C)C)C(=O)N1C` [DP-188] (A[NMeA][NMeF][NMeL]T[Sar]V[NMeL][NMeL]D[NMeF]A-Piperidide; lactam N-10) are 84 µL/min/mg and 28 ×10⁻⁶ cm/s.
On the same counts, the results for `CC[C@H](C)[C@@H]1NC(=O)[C@H](Cc2ccccc2)N(C)C(=O)[C@H]([C@@H](C)O)NC(=O)[C@@H](C)NC(=O)C[C@@H](C(=O)N(C)[C@@H](Cc2ccccc2)C(=O)N[C@@H](C)C(=O)N2CCCCC2)NC(=O)[C@H](CC(C)C)N(C)C(=O)[C@H](CC(C)C)N(C)C(=O)[C@H](Cc2ccccc2)N(C)C(=O)[C@H](CC(C)C)N(C)C(=O)[C@H](C)N(C)C1=O` [DP-189] ([dA]T[NMeF]I[NMeA][NMeL][NMeF][NMeL][NMeL]D[NMeF]A-Piperidide; lactam N-10) are 3 µL/min/mg and 1.4 ×10⁻⁶ cm/s.
With `CC[C@H](C)[C@@H]1NC(=O)[C@H](C)N(C)C(=O)[C@H](CC(C)C)N(C)C(=O)[C@@H](C(C)C)NC(=O)C[C@@H](C(=O)N(C)[C@@H](Cc2ccccc2)C(=O)N[C@@H](C)C(=O)N2CCCCC2)NC(=O)[C@H]([C@@H](C)O)NC(=O)[C@H](CC(C)C)N(C)C(=O)[C@H](Cc2ccccc2)N(C)C(=O)[C@H](CC(C)C)N(C)C(=O)[C@H](Cc2ccccc2)N(C)C1=O` [DP-190] ([dV][NMeL][NMeA]I[NMeF][NMeL][NMeF][NMeL]TD[NMeF]A-Piperidide; lactam N-10), the microsomal CLint at 1 uM in data set [1] turned out to be 3 µL/min/mg. Further, in data set [2], the Papp at 18 hours, 50 µM was 0.6 ×10⁻⁶ cm/s.
Turning to `CC(C)C[C@H]1C(=O)N(C)[C@@H](Cc2ccccc2)C(=O)N(C)[C@@H](C(C)C)C(=O)N[C@@H](Cc2ccccc2)C(=O)N[C@H](C(=O)N(C)[C@@H](Cc2ccccc2)C(=O)N[C@@H](C)C(=O)N2CCCCC2)CC(=O)N(C)[C@@H](C)C(=O)N[C@@H](C(C)C)C(=O)N(C)[C@@H](CC(C)C)C(=O)N[C@@H]([C@@H](C)O)C(=O)NCC(=O)N1C` [DP-191] ([NMeA]V[NMeL]TG[NMeL][NMeF][NMeV]FD[NMeF]A-Piperidide; lactam N-10), the microsomal CLint at 1 uM in data set [1] came to 46 µL/min/mg. In data set [2], the Papp at 18 hours, 50 µM was 34 ×10⁻⁶ cm/s.
For `CC(C)C[C@H]1C(=O)N[C@@H]([C@@H](C)O)C(=O)N(C)[C@@H](Cc2ccccc2)C(=O)N(C)[C@@H](CC(C)C)C(=O)NCC(=O)N(C)[C@@H](C(C)C)C(=O)N[C@@H](Cc2ccccc2)C(=O)N[C@H](C(=O)N(C)[C@@H](Cc2ccccc2)C(=O)N[C@@H](C)C(=O)N2CCCCC2)CC(=O)N(C)CCC(=O)N[C@@H](C(C)C)C(=O)N1C` [DP-193] ([NMeβAla]V[NMeL]T[NMeF][NMeL]G[NMeV]FD[NMeF]A-Piperidide; lactam N-10) the same measures were 124 µL/min/mg and 53 ×10⁻⁶ cm/s.
With `CC(C)C[C@H]1C(=O)N(C)[C@@H](CC(C)C)C(=O)N[C@H](C(=O)N(C)[C@@H](Cc2ccccc2)C(=O)N[C@@H](C)C(=O)N2CCCCC2)CC(=O)N(C)CCC(=O)N(C)[C@@H](C)C(=O)N(C)[C@@H](CC(C)C)C(=O)N[C@@H]([C@@H](C)O)C(=O)N(C)[C@@H](Cc2ccccc2)C(=O)N[C@@H](C(C)C)C(=O)N(C)CC(=O)N1C` [DP-194] ([NMeβAla][NMeA][NMeL]T[NMeF]V[Sar][NMeL][NMeL]D[NMeF]A-Piperidide; lactam N-10), the microsomal CLint at 1 uM in data set [1] was found to be 72 µL/min/mg. For the same compound, in data set [2], the Papp at 18 hours, 50 µM turned out to be 22 ×10⁻⁶ cm/s.
For `CC[C@H](C)[C@@H]1NC(=O)[C@H](C)N(C)C(=O)[C@H]([C@@H](C)O)NC(=O)[C@H](C)N(C)C(=O)[C@H](C(C)C)N(C)C(=O)[C@H](Cc2ccccc2)NC(=O)CN(C)C(=O)C[C@@H](C(=O)N(C)[C@@H](Cc2ccccc2)C(=O)N[C@@H](C)C(=O)N2CCCCC2)NC(=O)[C@H](C)N(C)C(=O)[C@H](CC(C)C)N(C)C1=O` [DP-195] ([Sar]F[NMeV][NMeA]T[NMeA]I[NMeL][NMeA]D[NMeF]A-Piperidide; lactam N-10) the same measures were 52 µL/min/mg and 8 ×10⁻⁶ cm/s.
For `CC(C)C[C@H]1C(=O)N[C@@H](C(C)C)C(=O)N[C@H](C(=O)N(C)[C@@H](Cc2ccccc2)C(=O)N[C@@H](C)C(=O)N2CCCCC2)CC(=O)N[C@@H](C)C(=O)N(C)[C@@H](Cc2ccccc2)C(=O)N(C)[C@@H](C)C(=O)N(C)[C@@H](CC(C)C)C(=O)N[C@@H]([C@@H](C)O)C(=O)N(C)CC(=O)N1C` [DP-196] (A[NMeF][NMeA][NMeL]T[Sar][NMeL]VD[NMeF]A-Piperidide; lactam N-9) the same measures were 65 µL/min/mg and 29 ×10⁻⁶ cm/s.
For `CC(C)C[C@H]1C(=O)N[C@H](C(=O)N(C)[C@@H](Cc2ccccc2)C(=O)N[C@@H](C)C(=O)N2CCCCC2)CC(=O)N[C@H](C)C(=O)N(C)[C@@H](Cc2ccccc2)C(=O)N(C)[C@@H](CC(C)C)C(=O)N[C@@H]([C@@H](C)O)C(=O)N(C)[C@@H](C)C(=O)N(C)[C@@H](CC(C)C)C(=O)N[C@@H](C(C)C)C(=O)N1C` [DP-197] ([dA][NMeF][NMeL]T[NMeA][NMeL]V[NMeL]D[NMeF]A-Piperidide; lactam N-9) the same measures were 48 µL/min/mg and 27 ×10⁻⁶ cm/s.
For `CC(C)C[C@H]1C(=O)N[C@@H](C(C)C)C(=O)N[C@H](C(=O)N(C)[C@@H](Cc2ccccc2)C(=O)N[C@@H](C)C(=O)N2CCCCC2)CC(=O)N[C@H](C(C)C)C(=O)N(C)[C@@H](Cc2ccccc2)C(=O)N(C)[C@@H](C)C(=O)N(C)[C@@H](CC(C)C)C(=O)N[C@@H]([C@@H](C)O)C(=O)N(C)CC(=O)N1C` [DP-198] ([dV][NMeF][NMeA][NMeL]T[Sar][NMeL]VD[NMeF]A-Piperidide; lactam N-9), in data set [1], the microsomal CLint at 1 uM was 34 µL/min/mg. For the same compound, in data set [2], the Papp at 18 hours, 50 µM amounted to 36 ×10⁻⁶ cm/s.
For `CC(C)C[C@H]1C(=O)N(C)[C@@H](CC(C)C)C(=O)N[C@H](C(=O)N(C)[C@@H](Cc2ccccc2)C(=O)N[C@@H](C)C(=O)N2CCCCC2)CC(=O)N(C)[C@@H](C)C(=O)N(C)[C@@H](Cc2ccccc2)C(=O)N(C)[C@@H](CC(C)C)C(=O)N[C@@H]([C@@H](C)O)C(=O)N(C)[C@@H](C)C(=O)N[C@@H](C(C)C)C(=O)N1C` [DP-199] ([NMeA][NMeF][NMeL]T[NMeA]V[NMeL][NMeL]D[NMeF]A-Piperidide; lactam N-9) the same measures were 170 µL/min/mg and 59 ×10⁻⁶ cm/s.
Regarding `CC(C)C[C@H]1C(=O)N[C@@H](C(C)C)C(=O)N(C)[C@@H](Cc2ccccc2)C(=O)N(C)[C@@H](C)C(=O)N[C@@H](Cc2ccccc2)C(=O)N[C@H](C(=O)N(C)[C@@H](Cc2ccccc2)C(=O)N[C@@H](C)C(=O)N2CCCCC2)CC(=O)N(C)CCC(=O)N[C@@H]([C@@H](C)O)C(=O)N(C)CC(=O)N1C` [DP-200] ([NMeβAla]T[Sar][NMeL]V[NMeF][NMeA]FD[NMeF]A-Piperidide; lactam N-9), the microsomal CLint at 1 uM in data set [1] is 57 µL/min/mg. Also, in data set [2], the Papp at 18 hours, 50 µM was 22 ×10⁻⁶ cm/s.
As for `CC(C)C[C@H]1C(=O)N(C)[C@@H](Cc2ccccc2)C(=O)N[C@@H]([C@@H](C)O)C(=O)N(C)[C@@H](C)C(=O)N[C@@H](C(C)C)C(=O)N(C)[C@@H](CC(C)C)C(=O)N(C)[C@@H](CC(C)C)C(=O)N[C@H](C(=O)N(C)[C@@H](Cc2ccccc2)C(=O)N[C@@H](C)C(=O)N2CCCCC2)CC(=O)N(C)CCC(=O)N1C` [DP-201] ([NMeβAla][NMeL][NMeF]T[NMeA]V[NMeL][NMeL]D[NMeF]A-Piperidide; lactam N-9), the microsomal CLint at 1 uM in data set [1] is 209 µL/min/mg. For the same compound, the Papp at 18 hours, 50 µM in data set [2] came to 27 ×10⁻⁶ cm/s.
